# Columns and labels:
# oilseed rape [1] = assay: Test D postemergence; type: in vivo, Brassica napus; conditions: scale 0 to 100
# Summary of the method: (§1)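 Visual injury scored 0–100 (0 none, 100 complete control) against controls 14–21 days after treatment in a controlled growth environment. Chemicals were formulated in a non-phytotoxic solvent mixture containing surfactant, applied to silt loam soil preemergence or to 1- to 4-leaf plants postemergence.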
# ryegrass, Italian = assay: Test D postemergence; type: in vivo, Lolium multiflorum; conditions: scale 0 to 100
# Summary of the method: as §1
# wheat, spring = assay: Test D preemergence; type: in vivo, Triticum aestivum; conditions: for Plant response rating, Wheat, Spring: Preemergence, scale 0 to 100
# Summary of the method: as §1
# wheat, winter = assay: Test D preemergence; type: in vivo, Triticum aestivum; conditions: for Plant response rating, Wheat, Winter: Preemergence, scale 0 to 100
# Summary of the method: as §1
# canarygrass = assay: Test D postemergence; type: in vivo, Phalaris minor; conditions: scale 0 to 100
# Summary of the method: as §1
# kochia [2] = assay: Test D preemergence; type: in vivo, Kochia scoparia; conditions: for Plant response rating, Kochia: Preemergence, scale 0 to 100
# Summary of the method: as §1
# bromegrass, downy = assay: Test D preemergence; type: in vivo, Bromus tectorum; conditions: for Plant response rating, Bromegrass, Downy: Preemergence, scale 0 to 100
# Summary of the method: as §1
# field poppy [3] = assay: Test D postemergence; type: in vivo, Papaver rhoeas; conditions: scale 0 to 100
# Summary of the method: as §1
# barley, spring = assay: Test D postemergence; type: in vivo, Hordeum vulgare; conditions: scale 0 to 100
# Summary of the method: as §1
# barley, winter = assay: Test D postemergence; type: in vivo, Hordeum vulgare; conditions: scale 0 to 100
# Summary of the method: as §1
# radish, wild = assay: Test D preemergence; type: in vivo, Raphanus raphanistrum; conditions: for Plant response rating, Radish, Wild: Preemergence, scale 0 to 100
# Summary of the method: as §1
# lambsquarters = assay: Test D preemergence; type: in vivo, Chenopodium album; conditions: for Plant response rating, Lambsquarters: Preemergence, scale 0 to 100
# Summary of the method: as §1
# kochia [4] = assay: Test D postemergence; type: in vivo, Kochia scoparia; conditions: scale 0 to 100
# Summary of the method: as §1
# oilseed rape [5] = assay: Test D preemergence; type: in vivo, Brassica napus; conditions: for Plant response rating, Oilseed Rape: Preemergence, scale 0 to 100
# Summary of the method: as §1
# speedwell = assay: Test D postemergence; type: in vivo, Veronica persica; conditions: scale 0 to 100
# Summary of the method: as §1
# chickweed [6] = assay: Test D postemergence; type: in vivo, Stellaria media; conditions: scale 0 to 100
# Summary of the method: as §1
# windgrass = assay: Test D preemergence; type: in vivo, Apera spica-venti; conditions: for Plant response rating, Windgrass: Preemergence, scale 0 to 100
# Summary of the method: as §1
# blackgrass = assay: Test D preemergence; type: in vivo, Alopecurus myosuroides; conditions: for Plant response rating, Blackgrass: Preemergence, scale 0 to 100
# Summary of the method: as §1
# field poppy [7] = assay: Test D preemergence; type: in vivo, Papaver rhoeas; conditions: for Plant response rating, Field Poppy: Preemergence, scale 0 to 100
# Summary of the method: as §1
# chickweed [8] = assay: Test D preemergence; type: in vivo, Stellaria media; conditions: for Plant response rating, Chickweed: Preemergence, scale 0 to 100
# Text: Seeds of plant species selected from bluegrass (annual bluegrass, Poa annua), blackgrass (Alopecurus myosuroides), canarygrass (littleseed canarygrass, Phalaris minor), chickweed (common chickweed, Stellaria media), galium (catchweed bedstraw, Galium aparine), bromegrass, downy (downy bromegrass, Bromus tectorum), field poppy (Papaver rhoeas), field violet (Viola arvensis), foxtail, green (green foxtail, Setaria viridis), deadnettle (henbit deadnettle, Lamium amplexicaule), ryegrass, Italian (Italian ryegrass, Lolium multiflorum), kochia (Kochia scoparia), lambsquarters (Chenopodium album), oilseed rape (Brassica napus), pigweed (redroot pigweed, Amaranthus retroflexus), chamomile (scentless chamomile, Matricaria inodora), speedwell (bird's-eye speedwell, Veronica persica), barley, spring (spring barley, Hordeum vulgare), wheat, spring (spring wheat, Triticum aestivum), buckwheat, wild (wild buckwheat, Polygonum convolvulus), mustard, wild (wild mustard, Sinapis arvensis), oat, wild (wild oat, Avena fatua), radish, wild (wild radish, Raphanus raphanistrum), windgrass (Apera spica-venti), Russian thistle (Salsola kali), barley, winter (winter barley, Hordeum vulgare), and wheat, winter (winter wheat, Triticum aestivum) were planted into a silt loam soil and treated preemergence with test chemicals formulated in a non-phytotoxic solvent mixture which included a surfactant.
# At the same time, these species were planted in pots containing Redi-Earth® planting medium (Scotts Company, 14111 Scottslawn Road, Marysville, Ohio 43041) comprising spaghnum peat moss, vermiculite, wetting agent and starter nutrients and treated with postemergence applications of the test chemicals formulated in the same manner. Plants ranged in height from 2 to 18 cm (1- to 4-leaf stage). Treated plants and controls were maintained in a controlled growth environment for 14 to 21 days after which time all species were compared to controls and visually evaluated. Plant response ratings, summarized in Table D, are based on a scale of 0 to 100 where 0 is no effect and 100 is complete control. A dash (-) response means no test result.
# galium = assay: Test D preemergence; type: in vivo, Galium aparine; conditions: Preemergence, scale 0 to 100
# Summary of the method: as §1
# [9] = 16 g ai/ha, taken as preemergence
structure (smiles),measurement,setting,value
O=C(NC1CC1)c1cc(CCF)n(Cc2ccnc(C(F)(F)F)c2)n1 [Compound 176],"Plant response rating, Oilseed Rape","oilseed rape [1]; Postemergence, 16 g ai/ha",20
same,Oilseed Rape plant response rating,"oilseed rape [1]; Postemergence, 31 g ai/ha",40
same,Oilseed Rape plant response rating,"oilseed rape [1]; Postemergence, 125 g ai/ha",55
same,Oilseed Rape plant response rating,"oilseed rape [1]; postemergence, 62 g ai/ha",40
same,"Plant response rating, Ryegrass, Italian","ryegrass, Italian; Postemergence, 16 g ai/ha",5
same,"Ryegrass, Italian plant response rating","ryegrass, Italian; Postemergence, 31 g ai/ha",5
same,"Ryegrass, Italian plant response rating","ryegrass, Italian; Postemergence, 125 g ai/ha",10
same,"Ryegrass, Italian plant response rating","ryegrass, Italian; postemergence, 62 g ai/ha",5
same,"Plant response rating (scale 0 to 100), Wheat, Spring","wheat, spring; [9]",0
same,"Plant response rating, Wheat, Spring","wheat, spring; 62 g ai/ha",0
same,"Plant response rating, Wheat, Spring","wheat, spring; 125 g ai/ha",5
same,"Plant response rating (scale 0 to 100), Wheat, Winter","wheat, winter; [9]",0
same,"Plant response rating, Wheat, Winter","wheat, winter; 62 g ai/ha",0
same,"Plant response rating, Wheat, Winter","wheat, winter; 125 g ai/ha",5
same,"Plant response rating, Canarygrass","canarygrass; Postemergence, 16 g ai/ha",5
same,Canarygrass plant response rating,"canarygrass; Postemergence, 31 g ai/ha",15
same,Canarygrass plant response rating,"canarygrass; Postemergence, 125 g ai/ha",20
same,Canarygrass plant response rating,"canarygrass; postemergence, 62 g ai/ha",15
same,"Plant response rating (scale 0 to 100), Kochia",kochia [2]; [9],5
same,"Plant response rating, Kochia",kochia [2]; 62 g ai/ha,45
same,"Plant response rating, Kochia",kochia [2]; 125 g ai/ha,100
same,"Plant response rating (scale 0 to 100), Bromegrass, Downy","bromegrass, downy; [9]",0
same,"Plant response rating, Bromegrass, Downy","bromegrass, downy; 31 g ai/ha",0
same,"Plant response rating, Bromegrass, Downy","bromegrass, downy; 62 g ai/ha",15
same,"Plant response rating, Bromegrass, Downy","bromegrass, downy; 125 g ai/ha",25
same,"Plant response rating, Field Poppy","field poppy [3]; Postemergence, 16 g ai/ha",45
same,Field Poppy plant response rating,"field poppy [3]; Postemergence, 31 g ai/ha",50
same,Field Poppy plant response rating,"field poppy [3]; Postemergence, 125 g ai/ha",65
same,Field Poppy plant response rating,"field poppy [3]; postemergence, 62 g ai/ha",50
same,"Barley, Spring plant response rating","barley, spring; Postemergence, 16 g ai/ha",0
same,"Barley, Spring plant response rating","barley, spring; Postemergence, 31 g ai/ha",10
same,"Barley, Spring plant response rating","barley, spring; Postemergence, 125 g ai/ha",15
same,"Barley, Spring plant response rating","barley, spring; postemergence, 62 g ai/ha",10
same,"Barley, Winter plant response rating","barley, winter; Postemergence, 16 g ai/ha",0
same,"Barley, Winter plant response rating","barley, winter; Postemergence, 31 g ai/ha",10
same,"Barley, Winter plant response rating","barley, winter; Postemergence, 125 g ai/ha",20
same,"Barley, Winter plant response rating","barley, winter; postemergence, 62 g ai/ha",10
same,"Plant response rating (scale 0 to 100), Radish, Wild","radish, wild; [9]",15
same,"Plant response rating, Radish, Wild","radish, wild; 62 g ai/ha",75
same,"Plant response rating, Radish, Wild","radish, wild; 125 g ai/ha",100
same,"Plant response rating (scale 0 to 100), Lambsquarters",lambsquarters; [9],0
same,"Plant response rating, Lambsquarters",lambsquarters; 62 g ai/ha,65
same,"Plant response rating, Lambsquarters",lambsquarters; 125 g ai/ha,95
same,"Plant response rating, Kochia","kochia [4]; Postemergence, 16 g ai/ha",30
same,Kochia plant response rating,"kochia [4]; Postemergence, 31 g ai/ha",65
same,Kochia plant response rating,"kochia [4]; Postemergence, 125 g ai/ha",70
same,Kochia plant response rating,"kochia [4]; postemergence, 62 g ai/ha",65
same,"Plant response rating (scale 0 to 100), Oilseed Rape",oilseed rape [5]; [9],0
same,"Plant response rating, Oilseed Rape",oilseed rape [5]; 62 g ai/ha,35
same,"Plant response rating, Oilseed Rape",oilseed rape [5]; 125 g ai/ha,65
same,"Plant response rating, Speedwell","speedwell; Postemergence, 16 g ai/ha",50
same,Speedwell plant response rating,"speedwell; Postemergence, 31 g ai/ha",70
same,Speedwell plant response rating,"speedwell; Postemergence, 125 g ai/ha",70
same,Speedwell plant response rating,"speedwell; postemergence, 62 g ai/ha",70
same,"Plant response rating, Chickweed","chickweed [6]; Postemergence, 16 g ai/ha",20
same,Chickweed plant response rating,"chickweed [6]; Postemergence, 31 g ai/ha",35
same,Chickweed plant response rating,"chickweed [6]; Postemergence, 125 g ai/ha",65
same,Chickweed plant response rating,"chickweed [6]; postemergence, 62 g ai/ha",35
same,"Plant response rating (scale 0 to 100), Windgrass",windgrass; [9],0
same,"Plant response rating, Windgrass",windgrass; 62 g ai/ha,10
same,"Plant response rating, Windgrass",windgrass; 125 g ai/ha,40
same,"Plant response rating (scale 0 to 100), Blackgrass",blackgrass; [9],0
same,"Plant response rating, Blackgrass",blackgrass; 31 g ai/ha,0
same,"Plant response rating, Blackgrass",blackgrass; 62 g ai/ha,10
same,"Plant response rating, Blackgrass",blackgrass; 125 g ai/ha,20
same,"Plant response rating (scale 0 to 100), Field Poppy",field poppy [7]; [9],10
same,"Plant response rating, Field Poppy",field poppy [7]; 62 g ai/ha,55
same,"Plant response rating, Field Poppy",field poppy [7]; 125 g ai/ha,100
same,"Plant response rating (scale 0 to 100), Chickweed",chickweed [8]; [9],10
same,"Plant response rating, Chickweed",chickweed [8]; 31 g ai/ha,50
same,"Plant response rating, Chickweed",chickweed [8]; 62 g ai/ha,85
same,"Plant response rating, Chickweed",chickweed [8]; 125 g ai/ha,100
same,"Plant response rating, Galium",galium; 62 g ai/ha,60
same,"Plant response rating, Galium",galium; 125 g ai/ha,85

# — patent US20150105252A1, “SUBSTITUTED PYRAZOLES AS HERBICIDES” (E I DU PONT DE NEMOURS AND COMPANY, priority 2013, published 2015)
